Reference: a melting point compilation (Tetko et al.; mined from patent text by program, amines drawn as free bases though some values may be those of a salt)

| melting point | Compound |
| --- | --- |
| 148 to 149 °C | COc1ccc(C(O)(Cc2ccncc2)c2ccccc2)cc1OC1CCCC1 (stereo not drawn) |
| 129 to 132 °C | Cc1noc(NS(=O)(=O)c2ccc(-c3ccccc3)cc2)c1Cl |
| 137 to 139 °C | CCOCOC1(C(=O)COC(C)=O)C(C)CC2C3CC(C)C4=CC(=O)C=CC4(C)C3C(O)CC21C (stereo not drawn) |
| 55.5 to 56 °C | COCc1cc(CCCOc2c(Cl)cc(-c3noc(C)n3)cc2Cl)on1 |
| 162 to 165 °C | CS(=O)(=O)OCc1cc(-c2ccc3occc3c2)nn(Cc2ccc(F)cc2)c1=O |
| 242 to 245 °C | Cc1cccc(Nc2cc(Nc3ccc(O)cc3)ncn2)c1 |
| 239 to 241 °C | Nc1nc(-c2cc(Cl)ccc2Cl)nc(N2CCSCC2)n1 |
| 304 to 305 °C | Oc1cnc2cc(F)ccc2n1 |
| 63 to 64 °C | CCCCc1nn(-c2ccc(C(F)(F)F)cn2)cc1CCC(=O)OCC |
| 105 to 107 °C | Cc1cccc(-n2c(-c3sc(Nc4ccccc4)nc3-c3ccccc3)nc3ccccc3c2=O)c1 |
| 128 °C | OC(CN1CCNC1=S)c1cccc(Cl)c1 (stereo not drawn) |
| 53 to 54 °C | CC(C)(C)OC(=O)N1CCN(C(=O)SCc2ccc(O[Si](C)(C)C(C)(C)C)cc2)CC1 |
| 136 to 137 °C | CC(=CN1C(=O)c2ccccc2C1=O)c1ccco1 |
| 169 to 170 °C | Fc1ccc2c(c1)C(OCC1CC1)(C(F)F)c1cc(Cl)cnc1N2 (stereo not drawn) |
| 129 to 132 °C | O=CN(N=Cc1cccnc1)c1ccccc1 |
| 230 to 232 °C | N#Cc1cc(F)cc2c1OCCC21SC(=O)NC1=O (stereo not drawn) |
| 150 °C | NCCNCCN1CCC(c2cn(-c3ccc(F)cc3)c3ccc(Cl)cc23)CC1 |
| 162 to 164 °C | O=C(O)c1cc(-c2cccc(C(F)(F)F)c2)ns1 |
| 78 °C | CC1(C)COc2cc(C(F)(F)F)ccc2C(O)(c2ccccn2)C1 (stereo not drawn) |
| 71 to 72 °C | Cc1cc(O)c(O)cc1C |
| 137 to 140 °C | CC(C)(C)CC(C)(C)n1scc(Cl)c1=O |
| 115 to 117 °C | CC(O)(c1nc2ccc(S(=O)(=O)c3ccccc3)cc2[nH]1)C(F)(F)F (stereo not drawn) |
| 221 to 222 °C | c1ccc(-c2ccc(-c3cn4ccc5ccccc5c4n3)cc2)cc1 |
| 161 to 162 °C | Cc1cc(C)nc(NC(=N)Nc2ccccc2C(F)(F)F)n1 |
| 157 to 158 °C | CCCC(=O)Nc1c(C(=O)c2cccc(Cl)c2)[nH]c2cc(Cl)ccc12 |
| 122 to 125 °C | CC(CCCC(C)(C)O)C1CCC2C3=CC=C4CC(O)CCC4(C)C3CCC21C (stereo not drawn) |

| melting point | Compound |
| --- | --- |
| 128 to 133 °C | COc1ccc(C2CNC(=O)C2)cc1OCC(CN1CCN(c2ccccc2)CC1)OC(C)=O (stereo not drawn) |
| 106 to 107 °C | CCCCCc1c(C(C)C)nc(C(C)C)c(CO)c1-c1ccc(F)c(F)c1 |
| 100 to 102 °C | CC(=O)c1ccc(C2CCCC2)cc1 |
| 72 to 75 °C | CC(=O)c1cc(CN2CCN(CCO)CC2)ccc1O |
| 136 to 137 °C | c1cn(CC2(CCCC3CCCC3)SCCS2)cn1 |
| 52 °C | COc1cccc(C(=O)c2cccc(Cl)c2)c1 |
| > 250 °C | CCOC(=O)c1c(Cl)nc2cc(Cl)c(F)cc2c1CCl |
| 125 to 127 °C | Cc1sc(N)c(C(=O)c2ccc(Cl)s2)c1C |
| > 250 °C | O=C(Nc1cccc2c(NN3CCOC3=O)ccnc12)c1c(Cl)cccc1Cl |
| 86 to 88 °C | CCCC(=O)NCCc1cc(-c2cccc(C(=O)OC)c2)cc2ccc(OC)cc12 |
| 195 to 198 °C | Cc1oc2ccccc2c1C(=O)NCc1ccc2cc(O)ccc2c1 |
| 291 to 292 °C | O=S1(=O)N=C(NC2CCCC2)Nc2cc(Cl)sc21 |
| 139 to 140 °C | COc1cccc(C(=O)O)c1-c1ccccc1OC(C)C |
| 71 to 72 °C | COc1ccc([N+](=O)[O-])c(C=CN2CCCC2)c1 |
| 168 to 170 °C | CCC(=NOC)C(=NO)C(=O)NC |
| 174 to 175 °C | CS(=O)c1ccc(COc2cccc(C(=O)Nc3ccc(C#N)cc3)c2)cc1 (stereo not drawn) |
| 168 to 170 °C | O=C(O)Cc1ccc(C(=O)c2ccccc2)cc1[N+](=O)[O-] |
| 140 to 142 °C | COCOc1cc(F)ccc1-c1cc(-c2cccc(NC(=O)CN3CCCCC3)c2)c(C#N)c(NC(=O)c2ccco2)n1 |
| 189 to 190 °C | CCCCOc1c(CNC(=O)OC(C)(C)C)n(CC(C)C)c(=O)c2ccc(C(N)=S)cc12 |
| 147 to 148 °C | CC(C)(C)c1cc(C(c2ccc([N+](=O)[O-])cc2)N2CCCCC2)cc(C(C)(C)C)c1O (stereo not drawn) |
| 238 °C | N#Cc1ccc(-c2ccncc2OC2SCC(O)C(O)C2O)cc1 (stereo not drawn) |
| 155 to 157 °C | COc1ccc(-c2cc(=Nc3ccc(OCC4CO4)cc3)n(C)c(=O)n2C)cc1OC (stereo not drawn) |
| 104 to 106 °C | C#CC(C)N1C(=O)c2ccccc2C1=O (stereo not drawn) |
| 139 to 141 °C | COc1cc2ncc(C#N)c(Nc3ccc(Cl)cc3F)c2cc1OC |
| 170 °C | COC(=O)/C=C/n1cnc2ccc(SC)cc2c1=O |
| 100 to 102 °C | CCCCCCCCCCCCCCCCSCC(CNS(=O)(=O)CCCCl)NC(=O)OC(C)(C)C (stereo not drawn) |

| melting point | Compound |
| --- | --- |
| 89 to 90 °C | c1ccc(N2CCOCC2)c(N=C2CCCCN2)c1 |
| > 300 °C | O=C1c2ccc(O)cc2C(=O)N1c1ccc(C2(c3ccc(N4C(=O)c5ccc(O)cc5C4=O)cc3)c3ccccc3-c3ccccc32)cc1 |
| 187 to 189 °C | CCOC(=O)c1c(C)nsc1NC(=O)NC |
| 187 to 190 °C | CC(=O)N1CCN(C(=S)Nc2cc3sc(C(C)(C)C)nc3cc2N2CCC(C)CC2)CC1 |
| 91 to 93 °C | O=C(NCCc1ccc(Cl)cc1)c1ncccc1O |
| 94 to 97 °C | CN1C(=O)N(c2cc(F)ccc2F)C(=O)C1=Cc1ccccc1F |
| 174 °C | O=c1oc2ccccc2c(O)c1[N+](=O)[O-] |
| 94 to 95 °C | CCCOc1ccc(CO)cc1N |
| 205 °C | Cn1cc(C#N)c(Nc2ccc(Cl)cc2[N+](=O)[O-])n1 |
| 286 to 290 °C | CN1CC(=O)OC2CCN(C(=O)c3ccc(NC(=O)c4ccccc4Cl)cc3)c3ccccc3C21 (stereo not drawn) |
| 156 to 160 °C | CCc1c(CCN2CCC(c3nsc4cc(F)ccc34)CC2)sc2c1CCN(C(C)=O)C2 |
| 123 to 125 °C | CC(C)(C)OC(=O)NC1COCCCC=CC2CC2(C(=O)NS(=O)(=O)C2CC2)NC(=O)C2CC(OC(=O)c3cccc(Oc4ccccc4)c3)CN2C1=O (stereo not drawn) |
| 217 to 218 °C | Cc1cc(-c2nc3cccnn3c2-c2ccnc(NC(=O)c3ccsc3)c2)ccc1F |
| 336 to 339 °C | Nc1ccc2c(=O)n3c(nc2c1)C(=Cc1ccc(C(=O)O)cc1)CC3 |
| 107 to 109 °C | CON=C(C(=O)OC)c1ccccc1/C=C(\Cl)C(=O)O |
| 163 to 165 °C | CCOC(=O)c1c(CN(CC)CC)nc2sc3cnccc3c2c1-c1ccc(OC)c(OC)c1 |
| 256 to 258 °C | CC(C)[C@H](NCc1ccc(I)cc1)C(=O)O |
| 66 to 68 °C | O=[N+]([O-])c1ccc(CSc2ccc(Cl)cc2)cc1 |
| 271 °C | O=C(O)C(=O)c1ccc(OCCOc2ccnc3ccccc23)cc1 |
| 123 to 124 °C | CCOc1ccc(-c2nc(Cn3cccc3C(C)=O)cs2)cc1OCC |
| 64 to 65 °C | CC1=C(Cc2ccc(OC(F)(F)F)cc2)C(=O)c2ccccc2C1=O |
| 191 to 192 °C | NS(=O)(=O)c1ccc(-c2cc3c(cc2-c2ccc(F)cc2)OCO3)cc1 |
| 56 to 57 °C | COc1cc(CCC(=O)CC(=O)c2ccc(F)cc2)ccc1O |
| 149 to 151 °C | C[C@H]1C[C@@](O)(c2cccc(S(=O)(=O)c3ccc4c(c3F)CCC(=O)N4C)c2)CCO1 |
| 190 °C | CC(Oc1c(C(=O)O)cc(Cl)cc1[N+](=O)[O-])C(=O)O (stereo not drawn) |
| 54 to 56 °C | CCCOc1ccc(O)cc1OC |

| melting point | Compound |
| --- | --- |
| 181 to 183 °C | O=C(O)CCc1ccc2c(c1)Cc1ccccc1CO2 |
| 109 to 111 °C | O=CN1CCC(c2nn(-c3ccc(C(F)(F)F)cc3)c3ccccc23)CC1 |
| 29 to 30 °C | C=CCCCCOc1ccc(OCCCCC=C)cc1 |
| 133 to 135 °C | CCOC(=O)CC1(O)C(=O)Nc2ccc(F)cc21 (stereo not drawn) |
| 173 to 174 °C | CCOC(=O)/C=C/c1cc(OCc2cn(-c3ccc(C(F)(F)F)cn3)nc2C)nn1C |
| 112 to 115 °C | Cc1cn(COCCI)c(=O)[nH]c1=O |
| 245 to 248 °C | NC(C=CP(=O)(O)O)(CO)CCc1ccc(Sc2cccc(OCc3ccccc3)c2)cc1Cl (stereo not drawn) |
| 108 to 109 °C | CC(C)C(=O)c1c(C2CC2)nn2ccccc12 |
| 191 to 192 °C | COc1cc(Cl)c(N=C=S)cc1C(=O)Nc1c(C)cccc1C |
| 161 to 163 °C | CN(C)C(=O)C(C)(C)n1cc(Cl)c(-c2ccccc2Cl)n1 |
| 159 to 165 °C | Cc1ccc2sc3cc(F)ccc3c(=O)c2c1 |
| 147 to 151 °C | Cc1cn(CCCN2C(=O)c3ccc(Cl)c(Cl)c3C2=O)cn1 |
| 123 to 124 °C | COc1ccc(C(=O)N2CSCC2=O)cc1 |
| 262 °C | Nc1ccc(-c2noc(-c3cnn4c(C(F)(F)F)cc(-c5ccc(F)c(F)c5)nc34)n2)cn1 |
| 230 °C | O=C(Nc1c(Cl)cc(-c2n[nH]c(=O)o2)c2c1OCCO2)OCc1ccccc1 |
| 106 to 107 °C | COc1ccc(C2(C#Cc3ccc(C#N)s3)CCC(=O)CC2)cc1OC1CCCC1 |
| 78 to 79 °C | Oc1ccc(Oc2cnc3cc(F)ccc3n2)cc1 |
| 176 to 177 °C | Cn1nc2ccc(Cl)nn2c1=O |
| > 250 °C | COc1ncc(Oc2ccc(Cl)cc2)c2cc(C(N)=O)sc12 |
| 145 to 146 °C | C/C(=C\Cn1oc(=O)[nH]c1=O)c1cccc(OCc2nc(-c3ccc(OCC(F)(F)F)cc3)oc2C)c1 |
| 152 to 153 °C | CCC(C)(Oc1ccc(CNc2ccc(Cl)cc2)cc1)C(=O)O (stereo not drawn) |
| 120 to 122 °C | CC(=O)CCC(=S)N(CC(=O)O)C1Cc2ccccc2C1 |
| 194 °C | O=C(c1ccc(-c2ccncc2)nc1)N1CCN(S(=O)(=O)c2ccc3cc(Br)ccc3c2)CC1 |
| 252 °C | O=C(O)c1c(Cc2ccccc2)nc2c(C(F)(F)F)cccc2c1O |

| Compound | melting point |
| --- | --- |
| COc1cccc(OCCN2CCC(N(C)c3nccc(N(C)C)n3)CC2)c1 | 105 °C |
